{"source": "patent US20240358678A1", "about": "“METHODS AND COMPOSITIONS FOR ENHANCING CHEMOTHERAPEUTIC DRUG UPTAKE INTO BRAIN TUMORS” (Brown University, priority 2023, published 2024)", "key": {"HCMEC/D3 cells [1]": {"test_system": "HCMEC/D3 cells", "assay": "Cell titer Glo viability assay on HCMEC/D3", "format": "cell-based, human", "settings": "~1-5 μM BIA, 72 hours", "protocol": "Cell viability assay: Cells were plated at a density of 1500 cells/well in black-well clear bottom 96-well plates and left growing in culture conditions overnight. Next day, cells were treated with titrating doses of the indicated compounds. […] For BIA and cisplatin combinatorial studies, cells were incubated with BIA and cisplatin, and corresponding controls, for 5 days. Next, we used the Cell-Titer Glo 3D (Promega) following provider's guidelines and quantified for luminescence signal using a Molecular Devices SpectraMax M2 plate reader. Conditions were repeated in triplicates."}, "HCMEC/D3 cells [2]": {"test_system": "HCMEC/D3 cells", "assay": "Western blot of HCMEC/D3 cells", "format": "cell-based, human", "protocol": "Western blot: HCMEC/D3 and GBM cell lysates were collected in RIPA Buffer (Thermo Fisher Scientific) supplemented with 1× protease/phosphatase inhibitor cocktail (Cell Signaling). Lysate collection from murine tumor tissue samples (˜30 mg) was performed under homogenization using 23G and 26G needles. Total protein concentration was measured using Pierce 660 nm Protein Assay Reagent (Thermo Fisher Scientific) at 660 nm absorbance in Molecular Devices SpectraMax M2 plate reader. Samples were incubated in 1× Laemmli sample buffer (BioRad) at 95 degrees Celsius for 5 minutes before loading onto 10% Mini-PROTEAN TGX precast protein gel (BioRad). PageRuler Plus Pre-stained Protein Ladder (Thermo Fisher Scientific) was used as ladder. Appropriate secondary antibodies, Goat anti-mouse-HRP (Sigma) or Goat anti-rabbit-HRP (Sigma) in 5% milk in 1×TBST with 1:5000 dilution."}, "HCMEC/D3 cells [3]": {"test_system": "HCMEC/D3 cells", "assay": "Trans-endothelial electrical resistance (TEER) of HCMEC/D3 monolayers", "format": "cell-based, human", "protocol": "(§1) Trans-endothelial electrical resistance: HCMEC/D3 or HBMEC cells were plated in 8W10E+ PET 8-well arrays (Applied Biophysics) at a density of 100,000 cells/well in 500 μl. These arrays were placed in a pre-stabilized ECIS Z-Theta instrument (Applied Biophysics). Using the ECIS Z-Theta software (Applied Biophysics), measurements were set to 4000 and 64000 Hz every 30 minutes. […] Cells would then be treated with BIA and left to grow up to 5 days, with frequent drug-containing media re-addition for maintenance of the culture. Resistance (W) and capacitance (nF) were recorded and plotted."}, "HBMEC cells": {"test_system": "HBMEC cells", "assay": "Trans-endothelial electrical resistance (TEER) of HBMEC monolayers", "format": "cell-based, human", "protocol": "as §1"}, "HCMEC/D3 cells [4]": {"test_system": "HCMEC/D3 cells", "assay": "Real-time PCR for CDH5 in HCMEC/D3 cells", "format": "cell-based, human", "settings": "1 μM BIA, up to 48 hours", "protocol": "Real-time PCR: Total RNA from GBM and HCMEC/D3 cells was obtained and processed as indicated above. For cDNA generation, we used 1 μg of RNA and processed with the iScript™ cDNA synthesis kit (BioRad), following the protocol indicated by the provider. All primers were designed using NCBI Primer-Blast tool. Detailed information on primer sequences can be found in FIG. 25 (Supplementary Table 3). Gene expression levels were quantified using PowerUp SYBR Green Master Mix (Applied Biosciences) on QuantStudio 6 Pro System (Applied Biosciences), normalized by housekeeping gene GAPDH expression and represented as relative expression using comparative ΔΔCT method."}, "HCMEC/D3 cells [5]": {"test_system": "HCMEC/D3 cells", "assay": "Immunofluorescence staining of HCMEC/D3 endothelial cells", "format": "cell-based, human", "settings": "BIA 1 μM", "protocol": "Immunofluorescent (IF) staining: For IF staining of HCMEC/D3 endothelial cells, we coated 8-well Nunc™ Lab-Tek™ chamber slides (Thermo Fisher Scientific) with 1× Type 1 rat-tail collagen (Corning) following provider's instructions. Then, we plated at a density of 50,000 cells/well and left in culture for 72 hours to allow for barrier formation. Next, we treated with BIA or control for 24-48 hours. Cells were then fixed with 10% formalin (Thermo Fisher Scientific) for 10 minutes, permeabilized for 30 minutes using 0.01% Triton X-100 and blocked with 0.1% normal donkey serum (Calbiochem) for 1 hour in 0.025% Tween-20 (Thermo Fisher Scientific) in Phosphate-Buffered Saline (PBS) (Gibco). Then, primary antibodies were added: mouse anti-CDH5 (VE-cadherin, BioLegend) 1:100, rabbit antiClaudin-5 (Thermo Fisher Scientific) 1:100, and mouse anti-ZO-1 (Invitrogen) 1:100, and incubated overnight in the cold. Next day, secondary antibodies were used for 2 hours at room temperature: Alexa Fluor 594 anti-mouse (1:500), Alexa Fluor 594 anti-rabbit (1:500), and Alexa Fluor 647 anti-mouse (1:500), all of these Thermo Fisher Scientific. For cytoskeleton staining Phalloidin-iFluor 488 (Abcam) 1:1000 for 30 minutes and nuclei staining using Hoechst 33342 (Thermo Fisher Scientific) 1:1000 for 5 minutes, at room temperature."}, "[6]": {"test_system": "G9-PCDH, G34-PCDH and GL-261 GBM tumors", "assay": "ICP-MS platinum quantification in GBM tumor-bearing mice after BIA and cisplatin", "format": "in vivo", "settings": "G9-PCDH xenograft, increasing BIA doses", "protocol": "(§2) In vivo studies: For intra-cranial tumor implantation, GBM neuro-spheres were grown to 70% confluency before dissociated into single cell on the day of surgery. 50,000 cells were resuspended in 3 μl of sterile PBS and injected intracranially into the striatum (2 mm right hemisphere, 1 mm frontal, 3 mm depth from bregma) of mice under anesthesia and stereo-tactically fixed. Tumors were left to grow for approximately 2-3 weeks, depending the cell line. Animals were randomized to treatment groups. BIA injections consisted of 20 mg/kg (i.p.), except if indicated otherwise. PPRX-1701 was administered at 20 mg/kg (i.v.) via lateral tail-vein. Cisplatin injections were performed at 5 mg/kg (maximum tolerated dose, i.p.). All GBM tumor murine studies involved continuous condition and weight assessments, with endpoint considered when 20% of weight loss and/or moderate-to-high grimace scale and neurological symptoms were observed.\n(§3) ICP-MS for platinum quantification: Mice treated with cisplatin after BIA administration were euthanized, intra-cardially perfused with PBS and tissue harvested to be stored at −80 degrees Celsius. Tissue was processed and platinum (Pt195) was quantified using an Agilent 7900 ICP-MS, as previously described.^42"}, "[7]": {"test_system": "G9-PCDH, G34-PCDH and GL-261 murine GBM tumors", "assay": "ICP-MS platinum quantification in GBM tumor-bearing mice after BIA and cisplatin", "format": "in vivo", "protocol": "as §2, §3"}}, "data": [{"smiles": "CC(=O)ON=C1C(=C2C(=O)Nc3cc(Br)ccc32)Nc2ccccc21", "note": "[BIA, 6-bromoindirubin acetoxime]", "values": [{"measurement": "reduction of viability", "setting": "HCMEC/D3 cells [1]", "value": "up to 30%"}, {"measurement": "time of maximum reduction of CDH5 protein levels post-BIA addition", "setting": "HCMEC/D3 cells [2]; 1 μM BIA, remained for 2 days", "value": 12, "unit": "h"}, {"measurement": "protein levels of CAV1 or MFSD2A", "setting": "HCMEC/D3 cells [2]; BIA 1 μM, 48 hours", "value": "did not show any changes of protein levels"}, {"measurement": "barrier establishment (TEER), BIA added 24 hours after plating", "setting": "HCMEC/D3 cells [3]", "value": "prevented barrier establishment"}, {"measurement": "barrier formation (TEER), BIA added to confluent monolayers", "setting": "HCMEC/D3 cells [3]; BIA added at monolayer confluence (~110 hrs)", "value": "marked decreased of barrier formation"}, {"measurement": "barrier establishment (TEER), BIA added 24 hours after plating", "setting": "HBMEC cells", "value": "prevented barrier establishment"}, {"measurement": "CDH5 expression at the transcriptional level", "setting": "HCMEC/D3 cells [4]", "value": "decreased expression"}, {"measurement": "CDH5 immunofluorescence at the membrane periphery", "setting": "HCMEC/D3 cells [5]; 24-48 hrs", "value": "marked decrease"}, {"measurement": "Claudin-5 immunofluorescence", "setting": "HCMEC/D3 cells [5]; 48 hours", "value": "no difference"}, {"measurement": "ZO-1 immunofluorescence", "setting": "HCMEC/D3 cells [5]; 48 hours", "value": "marked reduction"}, {"measurement": "BIA dose showing significant cisplatin accumulation in the tumor", "setting": "[6]", "value": "above 10 mg/kg"}, {"measurement": "platinum uptake in contralateral healthy brain regions", "setting": "[7]; cisplatin 5 mg/kg 24 hours after BIA", "value": "no significant difference of uptake"}, {"measurement": "cisplatin (platinum) accumulation in tumor after BIA pre-treatment", "setting": "[7]; cisplatin 5 mg/kg 24 hours after BIA, 5 hours circulation", "value": "significant cisplatin intra-tumoral accumulation"}, {"measurement": "platinum accumulation in peripheral tissues such as heart or liver", "setting": "[7]; cisplatin 24 hours after BIA", "value": "no difference in platinum accumulation"}]}]}
